According to paper PMC8490327 (Environment international, 2021):

Key:
[1] = Absolute quantitation of circulating PFAS; type: in vivo, mouse; conditions: for Absolute Plasma PFAS Levels: Fold Change PFAS Female vs. PFAS Male / Absolute Plasma PFAS Levels: PFAS Female Average Concentration / Absolute Plasma PFAS Levels: PFAS male Average Concentration / Absolute Plasma PFAS Levels: Overall Average Concentration: 12 weeks; for Absolute Plasma PFAS Levels: PFAS Female Average Concentration: exposed females; for Absolute Plasma PFAS Levels: PFAS Female Average Concentration / Absolute Plasma PFAS Levels: PFAS male Average Concentration: 2 mg/L each in drinking water, n=3; for Absolute Plasma PFAS Levels: PFAS male Average Concentration: exposed males; for Absolute Plasma PFAS Levels: Overall Average Concentration: exposed mice of both sexes; for concentration at 12 weeks: C57BL/6J, mouse, plasma, oral
[2] = cited from earlier work; for Median serum concentration: general U.S. population, NHANES 2003-2004, ref Nelson et al. 2010
[3] = tested on: human PPARα; conditions: ref Behr et al. 2020b, cited from earlier work; for PPARα activation compared to the positive control GW7647: even at concentrations 250 times greater than GW7647; for In vitro activation of human PPARα: reporter gene assays
[4] = Relative hepatic PFAS levels; type: in vivo, mouse; conditions: liver; for Relative Hepatic PFAS Levels: Fold Change PFAS Female vs. PFAS Male / Relative Hepatic PFAS Levels: Fold Change PFAS vs. Vehicle: 12 weeks of the 5-PFAS mixture, 2 mg/L each in drinking water; for Hepatic level, fold increase in PFAS-exposed females compared to vehicle / Hepatic level, fold increase in PFAS-exposed males compared to vehicle: 12 weeks
[5] = Relative plasma PFAS levels; type: in vivo, mouse; conditions: for Relative Plasma PFAS Levels: Fold Change PFAS Female vs. PFAS Male / Relative Plasma PFAS Levels: Fold Change PFAS vs. Vehicle: 12 weeks of the 5-PFAS mixture, 2 mg/L each in drinking water; for Plasma level, fold increase in PFAS-exposed females compared to vehicle / Plasma level, fold increase in PFAS-exposed males compared to vehicle: 12 weeks
[6] = ref Olsen et al. 2007; cited from earlier work
[7] = tested on: humans; conditions: cited from earlier work

Row | SMILES | Absolute Plasma PFAS Levels: Fold Change PFAS Female vs. PFAS Male [1] [fold] | Absolute Plasma PFAS Levels: PFAS Female Average Concentration [1] [µg/mL] | Absolute Plasma PFAS Levels: PFAS male Average Concentration [1] [µg/mL] | Absolute Plasma PFAS Levels: Overall Average Concentration [1] [µg/mL] | concentration at 12 weeks ([1]; both) [ng/mL] | PPARα activation compared to the positive control GW7647 [3] | In vitro activation of human PPARα [3] | Relative Hepatic PFAS Levels: Fold Change PFAS Female vs. PFAS Male [4] [fold] | Relative Hepatic PFAS Levels: Fold Change PFAS vs. Vehicle [4] [fold] | Hepatic level, fold increase in PFAS-exposed females compared to vehicle [4] [fold] | Hepatic level, fold increase in PFAS-exposed males compared to vehicle [4] [fold] | Relative Plasma PFAS Levels: Fold Change PFAS Female vs. PFAS Male [5] [fold] | Plasma level, fold increase in PFAS-exposed females compared to vehicle [5] [fold] | Plasma level, fold increase in PFAS-exposed males compared to vehicle [5] [fold] | Biological half-life in human serum [6] | Relative Plasma PFAS Levels: Fold Change PFAS vs. Vehicle [5] [fold] | Median serum concentration [2] [ng/mL] | other results
1 | O=C(O)C(F)(F)C(F)(F)C(F)(F)C(F)(F)C(F)(F)C(F)(F)C(F)(F)C(F)(F)F [PFNA, perfluorononanoic acid] | 0.8 | 33.7 ± 7.6 | 40.9 ± 10.6 | 37.3 ± 9.1 |  |  |  |  |  |  |  |  |  |  |  |  |  | 
2 | N.O=C(O)C(F)(OC(F)(F)C(F)(F)C(F)(F)F)C(F)(F)F (stereo not shown) [GenX] | 1.8 |  |  |  | 140 | 60-90% | capable of PPARα activation |  |  |  |  |  |  |  |  |  |  | concentration at 12 weeks [1]: ~100 ng/g; Serum level in a population exposed to PFAS-contaminated water ([2]; not detected above limit of detection, ref Kotlarz et al. 2020): < 2 ng/mL
3 | O=S(=O)(O)C(F)(F)C(F)(F)C(F)(F)C(F)(F)C(F)(F)C(F)(F)F [PFHxS] | 0.9 |  |  |  | 23800 |  | capable of PPARα activation | 1.30 | 705.46 | 2035.7 | 387.1 | 0.96 | 6491 | 5414.2 | ~8.5 years |  |  | 
4 | O=S(=O)(O)C(F)(F)C(F)(F)C(F)(F)C(F)(F)C(F)(F)C(F)(F)C(F)(F)C(F)(F)F [PFOS, Perfluorooctane sulfonate] | 0.6 | 13.8 ± 2.3 | 22.5 ± 4.1 | 18.1 ± 5.6 |  |  | capable of PPARα activation | 0.92 | 188.03 | 386.3 | 127.2 | 0.77 | 545.2 | 708.9 | ~5 years | 627.07 | 21 | 
5 | O=C(O)C(F)(F)C(F)(F)C(F)(F)C(F)(F)C(F)(F)C(F)(F)C(F)(F)F [PFOA, perfluorooctanoic acid] | 3.2 | 23.4 ± 9.0 | 7.3 ± 1.8 |  | 15400 | 60-90% | capable of PPARα activation | 2.43 | 1513.94 | 4693.4 | 571.9 | 1.96 | 10883.6 | 6936.8 | around 4 years | 10270.75 | 3.9 | Average serum concentration ([2]; populations occupationally exposed to PFOA, ref Sakr et al. 2007): 1.13 µg/mL; Predicted increase in total cholesterol from lowest to highest decile of PFOA ([7]; exposed communities, ref Steenland et al. 2009): 11 to 12 mg/dL; Increase in total cholesterol associated with 1 ppm increase in serum PFOA ([7]; occupationally exposed populations, ref Sakr et al. 2007): 1.06 mg/dL
